Data as given in patent US5583108A, “Vasonatrin peptide and analogs thereof” (Mayo Foundation for Medical Education and Research, priority 1994, dated 1996).

What was measured:
[1] = system: isolated normal canine blood vessels; assay: Organ chamber isometric force: relaxation of phenylephrine-contracted vessel rings; parameters: species or system dog; settings: for relaxation: maximal dose (3×10^-6 M); for maximal response, percent change in tension from a contraction to phenylephrine: peptide 3 × 10^-6 M, mean ± SEM
Experimental: (§1) The results obtained are expressed as the means ±SEM. In organ chamber studies, n equals the number of dogs from which rings were taken. Rings with and without endothelium were studied in parallel, and Student's t-test for unpaired observations was used to determine statistical significance among the responses of rings with and without endothelium and between responses of arteries and veins. In rat studies, the data were analyzed using ANOVA for repeated measures followed by Fisher's least significant difference test when appropriate within the group. Data between groups were analyzed by Student's unpaired t-test. Statistical significance was determined at p<0.05.
Rings cut from femoral, saphenous, renal and pulmonary arteries and veins obtained from random source mongrel dogs (anesthetized with 30 mg/kg pentobarbital sodium intravenously) were suspended for the measurement of isometric force in organ chambers filled with aerated (95% O2 and 5% CO2) modified Krebs-Ringer bicarbonate solution (composition in mM: 118.3 NaCl, 4.7 KCl, 2.5 CaCl2, 1.2 MgSO4, 1.2 KH2 PO4, 25.0 NaHCO3, 0.026 calcium sodium EDTA, and 11.1 dextrose; control solution) at 37° C. In one-half rings, the endothelium was removed by gently rubbing the intimal surface with a cotton swab wetted with control solution. Each ring was stretched to the optimal point on its length-tension curve as determined by the tension developed to norepinephrine (3×10^-7 M) at each level of stretch. The presence of endothelium was determined at the beginning of the experiment by a relaxation to acetylcholine (10^-6 M) during a contraction to norepinephrine at optimal length. The maximal tension of each ring was determined by norepinephrine (10^-4 M). To study responses to ANP, CNP and VNP, the rings were contracted with phenylephrine (10^-6 M). These contractions averaged 30-40% of the maximal contraction to norepinephrine. The peptides were added cumulatively once the contraction had stabilized.
The following commercially available drugs were used: acetylcholine chloride (Sigma Chemical, St. Louis, Mo.), human ANP and human CNP (Peninsula Laboratories, Belmont, Calif.), L-norepinephrine bitartrate (Sigma), phenylephrine bitartrate (Sigma). All drugs were dissolved in distilled water immediately prior to study, and the concentrations are reported as the final molar concentration (M) in the organ chamber.

normal rats = assay: Cardiorenal actions after intravenous bolus in anesthetized normal rats; type: in vivo, Wistar rats; settings: for MAP mean arterial pressure / HR heart rate / RAP right atrial pressure / UKV urine potassium excretion / UNaV urine sodium excretion / UV urine volume / UcGMPV urine cGMP volume / PcGMP plasma cGMP: mean ± SEM; for MAP mean arterial pressure: n = 4
Experimental: as §1
Experiments were conducted in accordance with the Animal Welfare Act. Wistar rats and spontaneously hypertensive rats (SHR) (400 g; Harlan Sprague-Dawley, Indianapolis, Ind.) were anesthetized with Inactin (100 mg/kg; intraperitoneal; BYK Gulden, Konstanz, Germany). The body temperature was maintained between 36° and 38° C. by a heating pad. Tracheostomy was performed; however, the animals were not artificially ventilated. Polyethylene catheters (PE-50; Becton Dickinson Co., Parsippany, N.J.) were placed in the left Jugular vein for infusions of saline and drugs, in the right jugular vein to right atrium to monitor right atrial pressure, and in the carotid artery for the collection of blood samples and to monitor mean arterial pressure. A PE-90 catheter was placed in the bladder for urine collection.
Experiments were conducted in three groups in normal rats: ANP group (n=4), CNP group (n=4), and VNP group (n=4). VNP also was studied in SHR rats (n=4). Intravenous infusions of saline solution (0.9% NaCl) were performed (1 ml/100 gm body weight/hr) through the left jugular vein catheter. After completion of surgery, rats were allowed to stabilize for 30 minutes. In each group, a 15-min baseline period followed. After the baseline period, saline solution (0.9% NaCl) was administered in a bolus fashion (0.1 ml) and was followed by a 15-min period. After the saline period, the peptide (ANP, CNP or VNP) was administered in a bolus fashion (0.1 ml) at 5 μg/kg which was followed by a 15-min period. This was followed by a second bolus (0.1 ml) at 50 μg/kg and a 15-min period. After a 30-min washout, a 15-min recovery period followed. During each experimental period, mean arterial pressure (MAP), heart rate (HR), and right atrial pressure (RAP) were measured. At the midpoint of baseline, second bolus fashion (50 μg/kg) and recovery periods, blood was sampled for plasma cGMP. At the end of each period, urine was measured for volume (UV), and samples were stored for electrolytes and cGMP analysis.
Blood for plasma cGMP analysis was collected into EDTA tubes, immediately placed on ice, and centrifuged at […] at 4° C. Plasma was separated and stored at -20° C. until assay. Urine for cGMP determination was heated to >90° C. before storage. Plasma and urine cGMP were determined by a specific RIA as previously described by A. L. Steiner et al., J. Hypertension, 5 (Suppl. 5) 551-553 (1987).

[2] = normal rats, high dose (50 μg/kg) bolus

With `CC[C@H](C)[C@@H]1NC(=O)[C@H](CCCNC(=N)N)NC(=O)[C@H](CC(=O)O)NC(=O)[C@H](CC(C)C)NC(=O)[C@H](CCCCN)NC(=O)[C@H](CC(C)C)NC(=O)CNC(=O)[C@H](Cc2ccccc2)NC(=O)[C@@H](NC(=O)CNC(=O)[C@H](CCCCN)NC(=O)[C@H](CO)NC(=O)[C@H](CC(C)C)NC(=O)CN)CSSC[C@@H](C(=O)O)NC(=O)CNC(=O)[C@H](CC(C)C)NC(=O)CNC(=O)[C@H](CO)NC(=O)[C@H](CCSC)NC(=O)[C@H](CO)NC(=O)CNC1=O` [CNP, C-type natriuretic peptide] the relaxation ([1]; femoral and saphenous arteries) was “no effects”, the “maximal response, percent change in tension from a contraction to phenylephrine” value (“maximal response, percent change” for short) ([1]; femoral artery, with endothelium, phenylephrine 10^-6 M) was 4 ± 3% and the “maximal response, percent change” value ([1]; femoral artery, without endothelium) was 10 ± 6%. For the same compound, the “maximal response, percent change” value ([1]; femoral vein, with endothelium) was 37 ± 8%, the “maximal response, percent change” value ([1]; femoral vein, without endothelium) was 73 ± 8% and the relaxation ([1]; femoral veins) was 90%. The “maximal response, percent change” value ([1]; pulmonary artery, with endothelium) was 12 ± 3%, the “maximal response, percent change” value ([1]; pulmonary artery, without endothelium) was 33 ± 5% and the “maximal response, percent change” value ([1]; pulmonary vein, with endothelium) was 31 ± 6%. For the same compound, the “maximal response, percent change” value ([1]; pulmonary vein, without endothelium) was 66 ± 4%, the “maximal response, percent change” value ([1]; renal artery, with endothelium) was 8 ± 2% and the “maximal response, percent change” value ([1]; renal artery, without endothelium) was 8 ± 2%. For the same compound, the “maximal response, percent change” value ([1]; renal vein, with endothelium) was 43 ± 4%, the “maximal response, percent change” value ([1]; renal vein, without endothelium) was 71 ± 5% and the “maximal response, percent change” value ([1]; saphenous artery, with endothelium) was 11 ± 7%. The “maximal response, percent change” value ([1]; saphenous artery, without endothelium) was 14 ± 8%, the “maximal response, percent change” value ([1]; saphenous vein, with endothelium) was 16 ± 1% and the “maximal response, percent change” value ([1]; saphenous vein, without endothelium) was 43 ± 10%. For the same compound, the relaxation ([1]; saphenous veins) was 40%, the “relaxation, % of the contraction to phenylephrine” value ([1]; systemic arteries (femoral, saphenous and renal)) was “less than 30%” and the “natriuretic action (in words)” value (normal rats; in vivo, rat) was “modest but significant natriuretic actions”. The “change in MAP and RAP (in words)” value (normal rats; [2]) was “significant decrease”, the “change in urine flow, sodium excretion, plasma cGMP and urinary cGMP volume (in words)” value (normal rats; [2]) was “increased” and the “MAP mean arterial pressure” value (normal rats; normal rats, iv bolus 5 μg/kg, 15-min period) was 100 ± 12 mmHg. The HR heart rate (normal rats; normal rats, iv bolus 5 μg/kg) was 363 ± 19 beats/min, the “RAP right atrial pressure” value (normal rats; normal rats, iv bolus 5 μg/kg) was 0 ± 1.5 mmHg and the “UKV urine potassium excretion” value (normal rats; normal rats, iv bolus 5 μg/kg) was 5.1 ± 1.6 µmol/min. For the same compound, the “UNaV urine sodium excretion” value (normal rats; normal rats, iv bolus 5 μg/kg) was 4.1 ± 1.4 µmol/min, the UV urine volume (normal rats; normal rats, iv bolus 5 μg/kg) was 27.6 ± 2.0 µL/min and the “UcGMPV urine cGMP volume” value (normal rats; normal rats, iv bolus 5 μg/kg) was 97 ± 32 pmol/min. For the same compound, the HR heart rate (normal rats; normal rats, iv bolus 50 μg/kg) was 365 ± 19 beats/min, the “PcGMP plasma cGMP” value (normal rats; normal rats, iv bolus 50 μg/kg) was 19.4 ± 2.7 pmol/mL and the “RAP right atrial pressure” value (normal rats; normal rats, iv bolus 50 μg/kg) was -2.3 ± 0.6 mmHg. For the same compound, the “UKV urine potassium excretion” value (normal rats; normal rats, iv bolus 50 μg/kg) was 7.6 ± 2.5 µmol/min, the “UNaV urine sodium excretion” value (normal rats; normal rats, iv bolus 50 μg/kg) was 12.1 ± 3.2 µmol/min and the UV urine volume (normal rats; normal rats, iv bolus 50 μg/kg) was 66.4 ± 7.4 µL/min. For the same compound, the “UcGMPV urine cGMP volume” value (normal rats; normal rats, iv bolus 50 μg/kg) was 323 ± 81 pmol/min, the “MAP mean arterial pressure” value (normal rats; normal rats, recovery period after 30-min washout) was 104 ± 11 mmHg and the HR heart rate (normal rats; normal rats, recovery period) was 363 ± 16 beats/min. For the same compound, the “PcGMP plasma cGMP” value (normal rats; normal rats, recovery period) was 3.6 ± 0.3 pmol/mL, the “RAP right atrial pressure” value (normal rats; normal rats, recovery period) was -0.1 ± 0.9 mmHg and the “UKV urine potassium excretion” value (normal rats; normal rats, recovery period) was 2.4 ± 1.1 µmol/min. For the same compound, the “UNaV urine sodium excretion” value (normal rats; normal rats, recovery period) was 2.9 ± 0.3 µmol/min, the UV urine volume (normal rats; normal rats, recovery period) was 21.2 ± 6.3 µL/min and the “UcGMPV urine cGMP volume” value (normal rats; normal rats, recovery period) was 70 ± 39 pmol/min. The “MAP mean arterial pressure” value (normal rats; normal rats, second iv bolus 50 μg/kg, 15-min period) was 87 ± 9 mmHg.
